The NIST ThermoML archive (doi:10.1016/j.jct.2010.04.015)
± gives the expanded uncertainty stated by the source.

Details: Liquid, Closed cell (Static) method

Row | SMILES | vapor or sublimation pressure (293.29 K) [kPa] | vapor or sublimation pressure (303.35 K) [kPa] | vapor or sublimation pressure (313.24 K) [kPa] | vapor or sublimation pressure (323.25 K) [kPa] | vapor or sublimation pressure (332.57 K) [kPa] | vapor or sublimation pressure (343.18 K) [kPa] | vapor or sublimation pressure (353.17 K) [kPa] | vapor or sublimation pressure (363.1 K) [kPa] | vapor or sublimation pressure (373 K) [kPa] | vapor or sublimation pressure (283.15 K) [kPa] | vapor or sublimation pressure (293.14 K) [kPa] | vapor or sublimation pressure (303.09 K) [kPa] | vapor or sublimation pressure (313.08 K) [kPa] | vapor or sublimation pressure (323.28 K) [kPa] | vapor or sublimation pressure (333.12 K) [kPa] | vapor or sublimation pressure (343.12 K) [kPa] | vapor or sublimation pressure (363.17 K) [kPa] | vapor or sublimation pressure (373.1 K) [kPa]
1 | CC(C)(N)CO [2-amino-2-methylpropan-1-ol] | 0.0415 ± 0.001 | 0.0975 ± 0.0019 | 0.2191 ± 0.0028 | 0.4556 ± 0.0048 | 0.8745 ± 0.0082 | 1.659 ± 0.011 | 2.933 ± 0.014 | 4.987 ± 0.019 | 8.142 ± 0.025 |  |  |  |  |  |  |  |  | 
2 | CN(C)CCCO [3-dimethylamino-1-propanol] |  |  |  |  |  |  |  |  |  | 0.007 ± 0.0003 | 0.016 ± 0.0006 | 0.0346 ± 0.0009 | 0.0707 ± 0.0014 | 0.1418 ± 0.0021 | 0.2604 ± 0.0031 | 0.4742 ± 0.005 | 1.419 ± 0.01 | 2.315 ± 0.012
